Measured values: patent US8975265B2, “Substituted imidazo[1,2-a]pyrimidines and —pyridines” (Bayer Intellectual Property GmbH, priority 2010, dated 2015)

Legend:
[1] = test system: KPL-4 breast cancer cell line; assay: Tumor cell proliferation assay (CellTiter-Glo, 72 h), KPL-4; format: cell-based; settings: KPL4, 72h drug exposure
Method in brief: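 KPL-4 cells were treated with compound for 72 h at 37°C. Viability was measured as ATP by CellTiter-Glo luminescence, with a separate t=0 plate read after overnight attachment. A reference compound was run as standard.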

[2] = biological target: His-tagged human recombinant kinase full-length Akt1 (Homo sapiens (Human), UniProt P31749); assay: Akt1 kinase assay (TR-FRET); format: biochemical; settings: 10 μM ATP; read-out: Akt1, median IC50
His-tagged human recombinant kinase full-length Akt1, sequence (P31749 whole entry): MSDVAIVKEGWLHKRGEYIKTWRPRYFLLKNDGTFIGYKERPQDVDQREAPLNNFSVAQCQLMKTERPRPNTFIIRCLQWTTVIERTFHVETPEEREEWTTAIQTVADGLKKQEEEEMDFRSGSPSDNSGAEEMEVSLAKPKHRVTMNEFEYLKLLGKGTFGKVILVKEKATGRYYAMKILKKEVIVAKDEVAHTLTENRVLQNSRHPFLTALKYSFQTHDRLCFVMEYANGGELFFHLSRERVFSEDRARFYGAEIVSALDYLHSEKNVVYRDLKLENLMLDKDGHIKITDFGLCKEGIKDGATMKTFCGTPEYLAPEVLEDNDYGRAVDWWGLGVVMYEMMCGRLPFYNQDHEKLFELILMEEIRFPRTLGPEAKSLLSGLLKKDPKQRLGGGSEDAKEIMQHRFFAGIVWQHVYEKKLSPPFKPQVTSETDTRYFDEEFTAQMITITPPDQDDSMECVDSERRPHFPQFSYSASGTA
Method in brief: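 Full-length His-tagged Akt1 (about 0.05 ng/μl final) preincubated 15 min at 22 °C with compound in 50 mM TRIS/HCl pH 7.5, 5 mM MgCl2, 1 mM DTT, 0.02% Triton X-100; biotinylated peptide substrate. Phosphopeptide detected by TR-FRET (Eu-chelate antibody to streptavidin-XL665) after 1 h at 22 °C.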

[3] = test system: MCF7; assay: Tumor cell proliferation assay (CellTiter-Glo, 72 h), MCF7; format: cell-based; settings: Homo sapiens, 72h drug exposure
Procedure: Compounds were tested in a cell-based assay that measures the capacity of the compounds to inhibit tumour cell proliferation following a 72h drug exposure. Cell viability is determined using CellTiter-Glow® (CTG, Promega, cat# G7571/2/3). The CellTiter-Glo® Luminescent Cell Viability Assay is a homogeneous method to determine the number of viable cells in culture. Detection is based on using the luciferase reaction to measure the amount of ATP from viable cells. The amount of ATP in cells correlates with cell viability. Within minutes after a loss of membrane integrity, cells lose the ability to synthesize ATP, and endogenous ATPases destroy any remaining ATP; thus the levels of ATP fall precipitously.
Cells were plated at 3000-5000 cells/well (depending on the cell lines) in 90 μL growth medium on MTPs (Corning; #3603, black plate, clear flat bottom). For each cell line assayed, cells were plated onto a separate plate for determination of […] at t=0 hour and t=72 hour time points. Following overnight incubation at 37° C., chemiluminescence values for the t=0 samples were determined after adding 10 μl medium and 100 μl CTG solution according to manufacture protocol. Plates for the t=72 hour time points were treated with compounds diluted into growth medium at ten times final concentration added in 10 μL to the cell culture plate. Cells were then incubated for 72 hours at 37° C. Chemiluminescence values for the t=72 hour samples were determined. […] Experiments were controlled using a reference compound as standard.

[4] = test system: p-AKT1/2/3-S473 in KPL4 breast tumour cell line; assay: Cellular p-AKT1/2/3-S473 assay; format: cell-based; settings: KPL4 breast tumour cell line, 2 hours treatment; read-out: pAKT-S743 median IC50
Method in brief: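 KPL4 cells (PIK3CA H1047R, HER2 0/E, hormone independent) were seeded at 60–80% confluency, cultured overnight, then exposed to compound for 2 h at 37 °C. pAKT-S473 and total AKT measured together by MSD Akt Duplex on 20 µg extract; pAKT expressed as % of total AKT, at least duplicate with independent repeats.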

[5] = test system: p-4E-BP1-T70 in KPL4 breast tumour cell line; assay: Cellular p-4E-BP1-T70 assay; format: cell-based; settings: 2 hours treatment, read-out: P4EBP1-T70 median IC50
Procedure: The molecular mechanism of action was investigated in a set of experiments to assess the inhibition of the PI3K-AKT-mTOR pathway in responsive cell lines such as KPL4 breast tumour cell line (PIK3CAH1047R, HER20/E and hormone independent). The phospho-substrates of PI3K-AKT-mTOR axis were used as the read-outs to reflect pathway inhibition. Cells were seeded at 60-80% confluency per well in 96-well cell culture plates. After overnight incubation at 37° C. 5% CO2, cells were treated with compounds and vehicle at 37° C. for 2 hours. Thereafter, cells were lysed in 150 μl lysis buffer and the levels of phospho-AKT at T308 and S473 and p-4E-BP1 at T70 sites were determined with the corresponding AlphaScreen® SureFire® assay kits (Perkin Elmer: 4E-BP1 Assay Kit Cat # TRG4E2S10K; Akt 1/2/3 p-Ser 473 #TGRA4S500 and Akt 1/2/3 p-Thr 308 #TGRA3S500 as well as IgG detection Kit #6760617M) as described in the manuals. All measurements where at least done in duplicates and confirmed by independent repetition.

Row | SMILES | IC50 [1] [nM] | IC50 [2] [nM] | IC50 [3] [nM] | IC50 [4] [nM] | IC50 [5] [nM]
1 | Cc1c(Cl)cn2c(-c3ccccc3)c(-c3ccc(C4(N)CCC4)cc3)nc2c1-c1ccn[nH]1 [Example 2-88] | 2500 | 187 | 2100 | 2570 | 8520
2 | Cc1c(-c2ccn[nH]2)cn2c(-c3ccccc3)c(-c3ccc(C4(N)CCC4)cc3)nc2c1C [Example 2-89] | 1900 | 330 | 1700 | 380 | 1400
3 | NC(=O)c1cc(Br)c2nc(-c3ccc(C4(N)CCC4)cc3)c(-c3ccccc3)n2c1 [Example 2-95] | 400 | 11 | 400 | 3 | 13
4 | NC(=O)c1cc(-c2cccnc2)cn2c(-c3ccccc3)c(-c3ccc(C4(N)CCC4)cc3)nc12 [Example 2-99] | 1800 | 177 | 1800 | 93 | 90
5 | Cc1c(C(N)=O)cn2c(-c3ccccc3)c(-c3ccc(C4(N)CCC4)cc3)nc2c1C [Example 2-100] | 900 | 201 | 1200 | 67 | 54
6 | Cc1cc(-c2cn[nH]c2)cn2c(-c3ccccc3)c(-c3ccc(C4(N)CCC4)cc3)nc12 [Example 2-102] | 1900 | 106 | 1900 | 33 | 158
7 | Cc1cc(-c2cccnc2)cn2c(-c3ccccc3)c(-c3ccc(C4(N)CCC4)cc3)nc12 [Example 2-104] | 300 | 175 | 200 | 112 | 348
8 | Cc1cc(-c2cc(C)c3nc(-c4ccc(C5(N)CCC5)cc4)c(-c4ccccc4)n3c2)[nH]n1 [Example 2-105] | 2200 | 217 | 1800 | 669 | 573
9 | CCc1cc(OC)c2nc(-c3ccc(C4(N)CCC4)cc3)c(-c3ccccc3)n2c1 [Example 2-147] | 1700 | 148 | 500 | 248 | 1340
10 | COc1cc(-c2ncc[nH]2)cn2c(-c3ccccc3)c(-c3ccc(C4(N)CCC4)cc3)nc12 [Example 2-149] | 2900 | 198 | 1800 | 576 | 1960

Next, values leading:

Row | IC50 [1] [nM] | IC50 [2] [nM] | IC50 [3] [nM] | IC50 [4] [nM] | IC50 [5] [nM] | SMILES
11 | 1900 | 5 | 1400 | 161 | 1800 | NC1(c2ccc(-c3nc4c(Br)cc(Cl)cn4c3-c3ccccc3)cc2)CCC1 [Example 2-85]
12 | 1900 | 67 | 1800 | 377 | 1590 | NC(=O)c1cc(-c2cn[nH]c2)cn2c(-c3ccccc3)c(-c3ccc(C4(N)CCC4)cc3)nc12 [Example 2-97]
13 | 1900 | 69 | 1900 | 225 | 1120 | NC(=O)c1cc(-c2ccn[nH]2)cn2c(-c3ccccc3)c(-c3ccc(C4(N)CCC4)cc3)nc12 [Example 2-98]
14 | 300 | 14 | 300 | 19 | 89 | Cc1cc(C(N)=O)cn2c(-c3ccccc3)c(-c3ccc(C4(N)CCC4)cc3)nc12 [Example 2-101]
15 | 200 | 99 | 200 | 230 | 719 | Cc1cc(-c2ccn[nH]2)cn2c(-c3ccccc3)c(-c3ccc(C4(N)CCC4)cc3)nc12 [Example 2-103]
16 | 1800 | 195 | 300 | 180 | 2180 | NC1(c2ccc(-c3nc4ccc(-c5cnc[nH]5)cn4c3-c3ccccc3)cc2)CCC1 [Example 2-129]
17 | 1900 | 139 | 1500 | 397 | 1810 | COc1cc(-c2cnc[nH]2)cn2c(-c3ccccc3)c(-c3ccc(C4(N)CCC4)cc3)nc12 [Example 2-148]
